# Laboratory results taken from ChEMBL document CHEMBL2021885, “Triphenylbutanamines: kinesin spindle protein inhibitors with in vivo antitumor activity” (J Med Chem, 2012).
# Key:
# [1] = Antiproliferative activity against human hTERT-HME1 cells after 72 hrs by Alamar blue assay; format: cell-based
# [2] = test system: NCI-H1299; test: Antiproliferative activity against human NCI-H1299 cells after 72 hrs by Alamar blue assay; format: functional; settings: NCI-H1299, 72 h
# [3] = test system: BXPC-3; test: Antiproliferative activity against human BxPC3 cells after 72 hrs by Alamar blue assay; format: functional; settings: BXPC-3, 72 h
# [4] = test system: K562; test: cells; settings: Homo sapiens, K562, 72 h
# Description: Antiproliferative activity against human K562 cells after 72 hrs by Alamar blue assay
# [5] = test system: HCT-116; test: Antiproliferative activity against human HCT116 cells after 72 hrs by Alamar blue assay; format: functional; settings: HCT-116, 72 h
# [6] = molecular target: T1, Kinesin-like protein KIF11 (Homo sapiens, UniProt P52732)
# T1 sequence (P52732 whole entry): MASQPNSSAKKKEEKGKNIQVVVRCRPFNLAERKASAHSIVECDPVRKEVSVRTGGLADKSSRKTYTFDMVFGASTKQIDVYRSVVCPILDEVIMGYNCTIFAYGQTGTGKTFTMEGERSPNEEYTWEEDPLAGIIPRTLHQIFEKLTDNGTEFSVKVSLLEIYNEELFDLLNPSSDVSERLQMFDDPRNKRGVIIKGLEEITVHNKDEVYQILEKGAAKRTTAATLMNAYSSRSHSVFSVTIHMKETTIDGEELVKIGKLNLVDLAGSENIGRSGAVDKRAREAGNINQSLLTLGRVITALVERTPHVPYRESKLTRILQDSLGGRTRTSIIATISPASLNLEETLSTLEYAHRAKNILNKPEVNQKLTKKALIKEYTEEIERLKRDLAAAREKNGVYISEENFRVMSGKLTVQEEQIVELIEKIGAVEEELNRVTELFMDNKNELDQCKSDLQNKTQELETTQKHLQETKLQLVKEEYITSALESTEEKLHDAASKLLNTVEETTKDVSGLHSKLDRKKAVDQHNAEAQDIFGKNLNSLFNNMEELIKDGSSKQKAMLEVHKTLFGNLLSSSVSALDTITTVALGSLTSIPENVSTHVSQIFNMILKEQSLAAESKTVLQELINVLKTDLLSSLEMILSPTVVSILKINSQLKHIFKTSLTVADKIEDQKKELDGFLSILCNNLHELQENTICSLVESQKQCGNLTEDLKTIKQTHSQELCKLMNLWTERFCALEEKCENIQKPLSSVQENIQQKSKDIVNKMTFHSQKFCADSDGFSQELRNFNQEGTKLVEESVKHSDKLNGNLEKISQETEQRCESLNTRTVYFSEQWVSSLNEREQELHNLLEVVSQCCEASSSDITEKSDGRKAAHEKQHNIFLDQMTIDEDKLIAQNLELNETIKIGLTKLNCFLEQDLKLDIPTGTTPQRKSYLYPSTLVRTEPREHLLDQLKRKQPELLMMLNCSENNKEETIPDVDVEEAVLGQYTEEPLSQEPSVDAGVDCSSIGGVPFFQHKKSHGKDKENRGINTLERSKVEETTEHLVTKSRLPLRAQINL
# [7] = Half life at pH 1.0 assessed as compound hydrolysis; format: physicochemical; settings: buffer
# [8] = Apparent permeability of the compound by PAMPA method; format: ADME
# [9] = molecular target: T1, Kinesin-like protein KIF11; remark: listed apart in the source
# [10] = test system: Liver; test: Intrinsic clearance in mouse liver microsomes assessed as per mg of protein; format: ADME, Microsome
# [11] = Intrinsic clearance in human hepatocytes assessed as per million cells; format: ADME, cell-based, Hepatocyte
# [12] = test system: Liver microsomes; test: Intrinsic clearance in human liver microsomes assessed as per mg of protein; format: ADME, Microsome
# [13] = Turbidimetric solubility of the compound at pH 7.4; format: physicochemical; settings: buffer
# [14] = Dissociation constant, pKa of the compound; format: physicochemical
# [15] = Distribution coefficient, log D of the compound at pH 7.4; format: physicochemical; settings: octanol/water
# [16] = Turbidimetric solubility of the compound at pH 2; format: physicochemical; settings: buffer
# [17] = Turbidimetric solubility of the compound at pH 6; format: physicochemical; settings: buffer
# [18] = Lipophilicity, Log P of the compound; format: physicochemical; settings: octanol/water
# [19] = physchem
compound,measurement,setting,value
N[C@H](CCC(c1ccccc1)(c1ccccc1)c1ccccc1)C(=O)O,GI50 at 72 h,[1],321 nM
same,GI50,[2],1320 nM
same,GI50,[3],1120 nM
same,GI50,[4],776 nM
same,GI50,[5],472 nM
Cc1ccc(C(CC[C@H](N)C(=O)O)(c2ccccc2)c2ccccc2)cc1,GI50 at 72 h,[1],49 nM
same,GI50,[2],305 nM
same,GI50,[3],268 nM
same,GI50,[4],149 nM
same,GI50,[5],115 nM
CNC(=O)c1cccc(C(SCCN)(c2ccccc2)c2ccccc2)c1,GI50,[4],982 nM
NCCNC(c1ccccc1)(c1ccccc1)c1ccccc1,Ki,[6],2660 nM
same,t1/2,[7],7 h
NC(=O)c1cccc(C(SC[C@H](N)C(=O)O)(c2ccccc2)c2ccccc2)c1,Papp,[8],impermeable
same,GI50,[4],16700 nM
CNC(=O)c1ccc(C(SCCN)(c2ccccc2)c2ccccc2)cc1,GI50,[4],3950 nM
NCCSC(c1ccccc1)(c1ccccc1)c1ccccc1,GI50 at 72 h,[1],1610 nM
same,GI50,[2],2300 nM
same,GI50,[3],2460 nM
same,Ki,[6],246 nM
same,Ki,[9],152 nM
same,GI50,[4],2290 nM
same,GI50,[5],1210 nM
NCCSC(c1ccccc1)(c1ccccc1)c1cccc(CN)c1,GI50,[4],2020 nM
N[C@@H](CSC(c1ccccc1)(c1ccccc1)c1ccccc1)C(=O)O [S-TRITYL-L-CYSTEINE],GI50 at 72 h,[1],361 nM
Cc1cccc(C(CC[C@H](N)C(=O)O)(c2ccccc2)c2ccccc2)c1,GI50 at 72 h,[1],42 nM
same,GI50,[2],281 nM
same,GI50,[3],180 nM
same,CLH,[10],Stable
same,CLH,[11],Stable
same,CLH,[12],Stable
same,GI50,[5],95 nM
Cc1ccc(C(CC[C@@H](N)C(=O)O)(c2ccccc2)c2ccccc2)cc1,GI50 at 72 h,[1],27 nM
same,GI50,[2],111 nM
same,GI50,[3],85 nM
same,GI50,[4],82 nM
same,GI50,[5],40 nM
Cc1cccc(C(SCCN)(c2ccccc2)c2ccccc2)c1,GI50,[4],698 nM
Cc1cccc(C(CCCN)(c2ccccc2)c2ccccc2)c1,GI50 at 72 h,[1],150 nM
same,solubility kinetic,[13],> 100 µM
same,CLH,[11],3.93 µL/min
same,pKa,[14],10.1
same,CLH,[12],Stable
same,logD,[15],2.33
same,solubility kinetic,[16],> 100 µM
same,solubility kinetic,[17],> 100 µM
same,logP,[18],4.69
NCCSC(c1ccccc1)(c1ccccc1)c1ccc(CN)cc1,GI50,[4],2590 nM
Cc1ccc(C(CCCN)(c2ccccc2)c2ccccc2)cc1,GI50 at 72 h,[1],601 nM
same,GI50,[2],376 nM
same,GI50,[3],1600 nM
same,GI50,[5],154 nM
NCCSC(c1ccccc1)(c1ccccc1)c1ccc(C(N)=O)cc1,GI50,[4],4340 nM
NCCSC(c1ccccc1)(c1ccccc1)c1cccc(Cl)c1,Ki,[6],298 nM
same,GI50,[4],1040 nM
CC(=O)c1ccc(C(SCCN)(c2ccccc2)c2ccccc2)cc1,GI50,[4],705 nM
NC(CCC(c1ccccc1)(c1ccccc1)c1ccccc1)C(=O)O (racemic),GI50 at 72 h,[1],494 nM
same,GI50,[2],2820 nM
same,GI50,[3],1490 nM
same,GI50,[4],865 nM
same,GI50,[5],828 nM
CC(=O)c1cccc(C(SCCN)(c2ccccc2)c2ccccc2)c1,GI50,[4],706 nM
CC(C)c1cccc(C(SCCN)(c2ccccc2)c2ccccc2)c1,GI50,[4],581 nM
NCCCC(c1ccccc1)(c1ccccc1)c1ccc(Cl)cc1,GI50 at 72 h,[1],308 nM
same,GI50,[2],828 nM
same,GI50,[3],2310 nM
same,GI50,[4],337 nM
same,GI50,[5],230 nM
N[C@@H](CNC(c1ccccc1)(c1ccccc1)c1ccccc1)C(=O)O,t1/2,[7],<= 2.9 hr
CC(=O)c1ccc(C(SC[C@H](N)C(=O)O)(c2ccccc2)c2ccccc2)cc1,Ki,[6],272 nM
same,GI50,[4],4270 nM
N[C@@H](CSC(c1ccccc1)(c1ccccc1)c1ccc2ccccc2c1)C(=O)O,GI50 at 72 h,[1],119 nM
same,GI50,[2],227 nM
same,GI50,[3],245 nM
same,Ki,[9],4.2 nM
same,GI50,[4],247 nM
same,GI50,[5],153 nM
NCCSC(c1ccccc1)(c1ccccc1)c1cccc(C(=O)O)c1,GI50,[4],2140 nM
CS(=O)(=O)c1cccc(C(SCCN)(c2ccccc2)c2ccccc2)c1,GI50,[4],2560 nM
Cc1cccc(C(CC[C@@H](N)C(=O)O)(c2ccccc2)c2ccccc2)c1,GI50 at 72 h,[1],26 nM
same,GI50,[2],132 nM
same,GI50,[3],75 nM
same,CLH,[10],Stable
same,CLH,[11],Stable
same,CLH,[12],Stable
same,GI50,[5],51 nM
NCCOC(c1ccccc1)(c1ccccc1)c1ccccc1,t1/2,[7],2.5 h
CN(C)C(=O)c1cccc(C(SCCN)(c2ccccc2)c2ccccc2)c1,Ki,[6],6060 nM
same,GI50,[4],2830 nM
CN(C)C(=O)c1ccc(C(SCCN)(c2ccccc2)c2ccccc2)cc1,GI50,[4],2910 nM
Cc1ccc(C(CCC(N)C(=O)O)(c2ccccc2)c2ccccc2)cc1 (racemic),GI50 at 72 h,[1],44 nM
same,GI50,[2],204 nM
same,GI50,[3],151 nM
same,GI50,[5],84 nM
CS(=O)(=O)c1ccc(C(SCCN)(c2ccccc2)c2ccccc2)cc1,GI50,[4],2740 nM
CSc1cccc(C(SCCN)(c2ccccc2)c2ccccc2)c1,Ki,[6],520 nM
same,GI50,[4],1470 nM
CCCc1cccc(C(SCCN)(c2ccccc2)c2ccccc2)c1,solubility kinetic,[19],3.75 µM
same,GI50,[4],1760 nM
N#Cc1ccc(C(SCCN)(c2ccccc2)c2ccccc2)cc1,Ki,[6],432 nM
same,GI50,[4],2180 nM
COc1cccc(C(SCCN)(c2ccccc2)c2ccccc2)c1,Ki,[6],150 nM
NCCSC(c1ccccc1)(c1ccccc1)c1cccc(F)c1,Ki,[6],377 nM
NCCSC(c1ccccc1)(c1ccccc1)c1cccc(OC(F)(F)F)c1,GI50,[4],1520 nM
N[C@@H](CCC(c1ccccc1)(c1ccccc1)c1ccccc1)C(=O)O,GI50 at 72 h,[1],721 nM
same,GI50,[2],4020 nM
same,GI50,[3],4860 nM
same,GI50,[4],2060 nM
same,GI50,[5],1600 nM
NCCSC(c1ccccc1)(c1ccccc1)c1cccc(C(F)(F)F)c1,Ki,[6],353 nM
CC(=O)NCc1cccc(C(SCCN)(c2ccccc2)c2ccccc2)c1,GI50,[4],2130 nM
CC(=O)c1cccc(C(SC[C@H](N)C(=O)O)(c2ccccc2)c2ccccc2)c1,GI50,[4],964 nM
Cc1ccc(C(SC[C@H](N)C(=O)O)(c2ccccc2)c2ccccc2)cc1,GI50 at 72 h,[1],57 nM
same,GI50,[2],242 nM
same,GI50,[3],284 nM
same,Ki,[9],13.6 nM
same,GI50,[4],242 nM
same,GI50,[5],130 nM
N[C@@H](CSC(c1ccccc1)(c1ccccc1)c1cccc(O)c1)C(=O)O,Papp,[8],impermeable
same,Ki,[6],48.8 nM
same,GI50,[4],2560 nM
NCCCC(c1ccccc1)(c1ccccc1)c1cccc(Cl)c1,GI50,[4],596 nM
Cc1ccc(C(=O)N(CCCN)[C@@H](c2nc3cc(Cl)ccc3c(=O)n2Cc2ccccc2)C(C)C)cc1 [ISPINESIB],GI50 at 72 h,[1],32 nM
same,CLH,[10],Stable
same,CLH,[11],0.75 µL/min
same,pKa,[14],9.34
same,CLH,[12],Stable
same,GI50,[4],71 nM
same,logD,[15],2.66
same,logP,[18],4.75
COc1ccc(C(SC[C@H](N)C(=O)O)(c2ccccc2)c2ccccc2)cc1,GI50 at 72 h,[1],81 nM
N#Cc1cccc(C(SCCN)(c2ccccc2)c2ccccc2)c1,Ki,[6],451 nM
N[C@@H](CSC(c1ccccc1)(c1ccccc1)c1cccc(Cl)c1)C(=O)O,Ki,[6],89.9 nM
same,GI50,[4],2400 nM
NCCSC(c1ccccc1)(c1ccccc1)c1ccc(CO)cc1,GI50,[4],783 nM
NCCCC(c1ccccc1)(c1ccccc1)c1ccccc1,GI50 at 72 h,[1],572 nM
same,GI50,[2],964 nM
same,GI50,[3],1220 nM
same,GI50,[5],213 nM
CC(=O)NCc1ccc(C(SCCN)(c2ccccc2)c2ccccc2)cc1,GI50,[4],2900 nM
